Test results: paper PMC7764284, “Determination of the Synthetic Cannabinoids JWH-122, JWH-210, UR-144 in Oral Fluid of Consumers by GC-MS and Quantification of Parent Compounds and Metabolites by UHPLC-MS/MS” (International Journal of Molecular Sciences, 2020)

How the values were obtained:
[1] = Oral fluid concentration-time course of SCs and metabolites in consumers after smoking self-administration (GC-MS and UHPLC-HRMS); conditions: for second peak concentration in OF: after the decrease at 3 h
[2] = set-up: method as in PMID 21871150; conditions: oral fluid; after smoking two types of herbal products; cited from earlier work
[3] = female, human, po, 3 mg, peak concentration (Cmax) in OF, consumer smoked JWH-210 3 mg, by UHPLC-HRMS, at 20 min
[4] = consumer smoked JWH-210 3 mg, UHPLC-HRMS
[5] = female, human, po, 3 mg, second peak concentration (Cmax) in OF, consumer smoked JWH-210 3 mg, UHPLC-HRMS, after 2 h

CCCCCn1cc(C(=O)c2ccc(CC)c3ccccc23)c2ccccc21 [JWH-210, (4-ethyl-1-naphthalenyl)(1-pentyl-1H-indol-3-yl)-methanone]
time after which undetectable in OF ([1]; consumer smoked JWH-210 3 mg): 3 h | Tmax ([1]; female, human, po, 3 mg): 20 min | Cmax ([1]; female, human, po, 3 mg, peak concentration (Cmax) in OF, consumer smoked JWH-210 3 mg, by GC-MS, at 20 min): 8.1 ng/mL | Cmax [1, 3]: 7.3 ng/mL

CCCCCn1cc(C(=O)c2cccc3ccccc23)c2ccccc21 [JWH-018]
time of peak OF concentration [2]: 20 min

CCc1ccc(C(=O)c2cn(CCCC(C)O)c3ccccc23)c2ccccc12 (centres unmarked) [JWH-210 N-(4-OH), (4-ethylnaphthalen-1-yl)(1-(4-hydroxypentyl)-1H-indol-3-yl)methanone]
time of second peak concentration [1, 4]: 2 h | Tmax ([1]; female, human, po, 3 mg): 20 min | Cmax [1, 3]: 0.29 ng/mL | Cmax [1, 5]: 0.98 ng/mL

Cc1ccc(C(=O)c2cn(CCCCCO)c3ccccc23)c2ccccc12 [JWH-122 N-(5-OH), (1-(5-hydroxypentyl)-1H-indol-3-yl)(4-methylnaphthalen-1-yl)-methanone]
detection of metabolite in OF ([1]; consumer smoked JWH-122 1 mg, UHPLC-HRMS): only detected in traces under the LOQ

CCc1ccc(C(=O)c2cn(CCCCCO)c3ccccc23)c2ccccc12 [JWH-210 N-(5-OH), (4-ethylnaphthalen-1-yl)(1-(5-hydroxypentyl)-1H-indol-3-yl)methanone]
time of second peak concentration [1, 4]: 2 h | Tmax ([1]; female, human, po, 3 mg): 20 min | Cmax [1, 3]: 0.66 ng/mL | Cmax [1, 5]: 0.61 ng/mL

CC1(C)C(C(=O)c2cn(CCCCCO)c3ccccc23)C1(C)C [UR-144 N-(5-OH), [1-(5-hydroxypentyl)-1H-indol-3-yl](2,2,3,3-tetramethylcyclopropyl)-methanone]
detection of metabolite in OF ([1]; consumer smoked UR-144 1 mg, UHPLC-HRMS, all the time-course): only detected in traces

CCCCCn1cc(C(=O)C2C(C)(C)C2(C)C)c2ccccc21 [UR-144, (1-pentyl-1H-indol-3-yl)(2,2,3,3-tetramethylcyclopropyl)-methanone]
time peak from smoking start ([1]; consumer smoked UR-144 1 mg): 20 min | time to decrease to undetectable values in OF ([1]; consumer smoked UR-144 1 mg): ≤ 4 h | Cmax ([1]; male, human, po, 1 mg, Cmax in OF, consumer smoked UR-144 1 mg, by GC-MS, at 20 min): 7.4 ng/mL | Cmax ([1]; male, human, po, 1 mg, Cmax in OF, consumer smoked UR-144 1 mg, by UHPLC-HRMS, at 20 min): 6.81 ng/mL

CCCCCn1cc(C(=O)c2ccc(C)c3ccccc23)c2ccccc21 [JWH-122, (4-methyl-1-naphthalenyl)(1-pentyl-1H-indol-3-yl)-methanone]
second peak concentration in OF ([1]; consumer smoked JWH-122 1 mg, by GC-MS): 2.00 ng/mL | second peak concentration in OF ([1]; consumer smoked JWH-122 1 mg, by UHPLC-HRMS): 1.60 ng/mL | Tmax ([1]; female, human, po, 1 mg): 20 min | Cmax ([1]; female, human, po, 1 mg, peak concentration (Cmax) in OF, consumer smoked JWH-122 1 mg, by GC-MS, at 20 min): 4 ng/mL | Cmax ([1]; female, human, po, 1 mg, peak concentration (Cmax) in OF, consumer smoked JWH-122 1 mg, by UHPLC-HRMS, at 20 min): 3.14 ng/mL

Cc1ccc(C(=O)c2cn(CCCC(C)O)c3ccccc23)c2ccccc12 (centres unmarked) [JWH-122 N-(4-OH), (1-(4-hydroxypentyl)-1H-indol-3-yl)(4-methylnaphthalen-1-yl)methanone]
concentration range in OF ([1]; consumer smoked JWH-122 1 mg, UHPLC-HRMS, between 10 min and 3 h after smoking): 0.29 to 0.36 ng/mL | concentration at 20 min ([1]; female, human, po, 1 mg): 0.29 ng/mL
